{"source": "patent US20240416143A1", "about": "“PHOTONIC ANTIMICROBIAL WOUND SURFACE DRESSING” (The General Hospital Corporation, priority 2021, published 2024)", "key": {"[1]": {"test_system": "P. aeruginosa biofilm", "assay": "Photoinactivation of 48-hour in vitro biofilms by adjuvant/antibiotic + antimicrobial blue light", "type": "cell-based, Pseudomonas aeruginosa", "method": "The bacterial suspension was grown in a shaking incubator overnight in BHI broth. Cells were collected by centrifugation at 4,000 rpm for 5 minutes and suspended in PBS at a density of 10^6 CFU/mL. Then, the biofilms were grown for 48 hours (unless otherwise specified) in 96-well microtiter plates as described previously [Ref. 27], with a renewal of the media every 24 hours. Following the 48-hour biofilm growth, fresh 200 μL of PBS with or without menadione in different concentrations were added to the wells and the biofilms were incubated in the dark at 25° C. for 1 hour: 0, 0.5, 1, and 2 μg/mL for MRSA USA300, AF0001, IQ0064; […]; and 0, 100, and 150 μg/mL for E. coli ATCC 25922. After that, the control and the menadione-treated biofilms were maintained without irradiation (“menadione/dark”). Simultaneously, the aBL was delivered to the other biofilm groups testing different power densities (50, 30, 15, and 10 mW/cm^2) while keeping the same radiant exposure of 250 J/cm^2. After the light exposure, the biofilms were carefully washed two times with PBS and 200 μL of PBS was added to each well. Then, the bacterial biofilms in each well were harvested by scratching with a sterile pipette tip and three wells of each group were pooled together in a 1.5 mL microcentrifuge tube. The total volume obtained, 600 μL (3 wells), was sonicated using a Branson 2510 Water Bath Sonicator (Marshall Scientific, LLC) for 5 minutes and the CFU was determined by 10-fold serial dilutions in PBS on BHI agar plates. CFU was counted after overnight incubation at 37° C. Experiments were performed in triplicate.\nA bacterial suspension was grown in a shaking incubator overnight in BHI broth. Cells were collected by centrifugation at 4,000 rpm for 5 minutes and suspended in PBS at a density of 10^6 CFU/mL. Then, the biofilms were grown for 48 hours in 96-well microtiter plates with a renewal of the media every 24 hours. Following the 48-hour biofilm growth, fresh 200 μL of PBS with the tetracyclines minocycline, doxycycline, and demeclocycline in different concentrations were added to the wells and the biofilms were incubated in the dark at 25° C. for 1 hour: 0, 0.25, 0.5, and 1 μg/mL for minocycline; 0, 0.5, 1, and 2 μg/mL for doxycycline; and 0, 0.5, 1, and 2 for demeclocycline. After that, the control and the tetracycline-treated biofilms were maintained without irradiation (“menadione/dark”). […] The total volume obtained, 600 μL (3 wells), was sonicated using a Branson 2510 Water Bath Sonicator (Marshall Scientific, LLC) for 5 minutes and the CFU/mL was determined by 10-fold serial dilutions in PBS on BHI agar plates. CFU was counted after overnight incubation at 37° C."}, "[2]": {"target": "NLRP3 inflammasome (Homo sapiens, UniProt Q96P20)", "sequence (Q96P20 whole entry)": "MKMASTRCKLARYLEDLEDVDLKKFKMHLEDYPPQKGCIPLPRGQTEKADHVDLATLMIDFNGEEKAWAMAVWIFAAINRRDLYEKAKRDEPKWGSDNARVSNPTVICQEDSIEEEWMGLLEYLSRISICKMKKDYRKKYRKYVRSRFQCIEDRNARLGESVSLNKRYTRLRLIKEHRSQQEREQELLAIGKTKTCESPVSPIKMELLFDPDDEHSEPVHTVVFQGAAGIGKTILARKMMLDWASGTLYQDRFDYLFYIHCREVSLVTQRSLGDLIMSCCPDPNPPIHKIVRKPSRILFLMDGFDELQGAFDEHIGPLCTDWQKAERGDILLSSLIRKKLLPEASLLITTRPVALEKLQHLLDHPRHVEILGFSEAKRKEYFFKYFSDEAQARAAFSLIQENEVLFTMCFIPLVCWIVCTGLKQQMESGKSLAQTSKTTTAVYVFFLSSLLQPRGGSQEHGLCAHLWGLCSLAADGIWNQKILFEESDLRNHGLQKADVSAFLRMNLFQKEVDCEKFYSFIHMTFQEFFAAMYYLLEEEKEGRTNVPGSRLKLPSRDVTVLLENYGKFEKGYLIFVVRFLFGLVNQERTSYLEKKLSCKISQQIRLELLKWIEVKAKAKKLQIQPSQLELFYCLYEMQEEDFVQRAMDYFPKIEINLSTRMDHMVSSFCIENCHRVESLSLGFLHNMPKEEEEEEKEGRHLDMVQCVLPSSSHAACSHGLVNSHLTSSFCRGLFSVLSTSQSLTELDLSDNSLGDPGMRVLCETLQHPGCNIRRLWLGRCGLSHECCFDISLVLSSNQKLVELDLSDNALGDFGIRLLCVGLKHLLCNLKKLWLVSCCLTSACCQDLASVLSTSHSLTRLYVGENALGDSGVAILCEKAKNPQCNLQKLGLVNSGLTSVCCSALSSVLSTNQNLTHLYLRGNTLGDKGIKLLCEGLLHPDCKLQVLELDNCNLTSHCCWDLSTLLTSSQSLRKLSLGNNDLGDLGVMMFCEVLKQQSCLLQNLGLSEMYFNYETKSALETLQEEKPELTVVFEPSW", "details": "cited from earlier work"}, "[3]": {"test_system": "P. aeruginosa", "assay": "Photoinactivation of planktonic cultures by menadione + antimicrobial blue light", "type": "cell-based, Pseudomonas aeruginosa PA01", "details": "menadione ⅛ MIC + aBL 90 J/cm^2 (50 mW/cm^2), 405 nm", "method": "The bacterial cells were grown in BHI broth medium shaken overnight. Cells were collected by centrifugation at 4,000 rpm for 5 minutes and suspended in PBS at a density of 10^8 colony-forming units (CFU)/mL (estimated by measuring the optical density at 600 nm; O.D 0.1=10^8 cells/mL). The microbial suspension in PBS was transferred to a 35×12-mm dish and mixed with different concentrations of menadione: 0, 0.5, 1 and 2 μg/mL for MRSA USA300, AF003 and IQ0064; 0, 1, 10 and 30 μg/mL for P. aeruginosa PA01; and 0, 16, 32, 64 and 128 μg/mL for E. coli ATCC 25922. After incubation in the dark at 25° C. for 1 hour, the planktonic suspension of cells at room temperature was irradiated using aBL (405 nm) at 50 mW/cm^2 with different radiant exposures (0-250 J/cm^2). During the aBL irradiation, 40 μL of samples were withdrawn every 15 minutes, and the CFUs were determined by 10-fold serial dilutions in PBS (10-1 to 10-7 dilution factors), plated on BHI agar plates as described previously [Ref. 17]. CFUs were counted after overnight incubation at 37° C. Experiments were performed in triplicate."}, "[4]": {"test_system": "MRSA", "assay": "Singlet oxygen assay (SOSG) in bacteria", "type": "cell-based, methicillin-resistant Staphylococcus aureus", "details": "10 μg/mL menadione, 200 J/cm^2", "method": "1.2.9.2 Singlet oxygen ^1O2 assay: The singlet oxygen was measured by Singlet Oxygen Sensor Green Reagent (SOSG) (Thermofisher). In the presence of singlet oxygen, SOSG emits a green fluorescence similar to that of fluorescein (excitation/emission maxima ˜504/525 nm). The MRSA were grown in BHI broth medium with shaking overnight. Cells were collected by centrifugation at 4,000 rpm for 5 minutes and resuspended in PBS in the stationary growth phase culture of 1×10^8 CFU/mL. The microbial suspension was transferred to a 35×12-mm dish, mixed with 10 μg/mL of menadione, and stained with 10 μM SOSG solution per the manufacturer's instruction. The bacteria were irradiated with the blue light at 50 mW/cm^2 and the samples were collected each 15 minutes to be analyzed by Microplate Spectrofluorometer (SPECTRAmax®, Molecular Devices, USA) at λex=504 nm and λem=525 nm. The control and the menadione/dark groups were generated under the same conditions without irradiation."}}, "data": [{"smiles": "CC1=CC(=O)c2ccccc2C1=O", "note": "[menadione, 2-methyl-1,4-naphthoquinone]", "values": [{"measurement": "biofilm reduction by menadione without irradiation", "setting": "[1]; 48 h biofilm, dark", "result": "< 1", "unit": "log killing"}, {"measurement": "biofilm eradicated by menadione plus aBL", "setting": "[1]; 48 h biofilm, 100 μg/mL menadione + aBL 250 J/cm^2 (50 mW/cm^2)", "result": 6.6, "unit": "log10 CFU/mL"}, {"measurement": "potentiation of the effect of aBL by menadione", "setting": "[1]; 48 h in vitro biofilm, vs aBL alone", "result": "~100", "unit": "fold"}, {"measurement": "inhibition of NLRP3 inflammasome", "setting": "[2]", "result": "selective, potent inhibitor"}, {"measurement": "eradication by aBL combined with menadione", "setting": "[3]", "result": 4.54, "unit": "log10 CFU/mL"}, {"measurement": "singlet oxygen (SOSG), menadione+aBL vs aBL alone", "setting": "[4]", "result": 1.5, "unit": "times"}]}]}
